Where two headings read alike, the source gives them in different places. Marks after values point to notes of the source that are not given here. Each block holds one compound with its values, some of them ahead of it.
Columns and labels:
[1] = Quantum yield for the generation of singlet oxygen; type: physicochemical; conditions: aqueous solution
Colo-26 cells = experiment: Dark and light-induced toxicity toward Colo-26 cells in culture; type: cell-based, murine; conditions: for EC50: 4 J cm^−2 of 590-800 nm light
Experimental: In order to compare relative phototoxicity, the core-modified porphyrins of Table 1 were evaluated in culture for dark and light-induced toxicities toward Colo-26 cells, a murine colon carcinoma cell line.

two tumor cell lines = experiment: Phototoxicity in two tumor cell lines in vitro; type: cell-based
Experimental: The topological and chemical properties of dichalcogenaporphyrins impart unexpected biological properties relative to the corresponding porphyrin derivatives. 5,10,15,20-tetrakis(4-sulfonatophenyl)-21-thiaporphyrin 8 and 21-selenaporphyrin 9 (FIG. 13) were prepared and evaluated the phototoxicity in two tumor cell lines in vitro.

[2] = Single-photon quantum yield for fluorescence; type: physicochemical; conditions: for emissiveness relative to dithiaporphyrin analogue: 7 vs 6, 10 vs DH-82; for quantum yield for fluorescence φF (± σ): one-photon, standard TPPS4 in water
Excerpt: In vivo fluorescence techniques have had significant impact on the development of PDT with respect to the pharmacokinetics of sensitizers and to PDT dosimetry. Photofrin® has been used in fluorescent diagnostics and the fluorescence of TPPS4 has been extensively studied. […] The quantum yield standard used in these studies was a freshly prepared solution of TPPS4 (φF =0.12) dissolved in water.

[3] = Rate of photobleaching in phosphate-buffered saline; type: physicochemical; conditions: PBS; 570-750 nm light at 500 mW cm^−2; constant initial absorbance
Excerpt: One limitation of PDT dosimetry is the rate of photobleaching of the photosensitizer, which can be problematic with Photofrin® and even more problematic with the bacteriochlorins and the chlorins (such as HPPH).

[4] = tested on: R3230AC rat mammary adenocarcinoma cells; experiment: Phototoxicity toward R3230AC cells in culture; type: cell-based; conditions: 10 μM, 24 h; 570-800 nm light, 0.9 J cm^−2; 24 h post-irradiation
Experimental: Similar results were obtained with R3230AC rat mammary adenocarcinoma cells in vitro. […] Light-treated cells and dark controls were incubated for 24 h and cell survival was determined. The surviving fraction, 24 h post-irradiation, is shown graphically in FIG. 4c.

BALB/c mice = experiment: Preliminary toxicity, single intravenous injection in BALB/c mice
Colo-26 tumors = experiment: PDT against implanted Colo-26 tumors in BALB/c mice; type: in vivo
Experimental: Core-modified porphyrin 6 gave a PDT response in vivo with 694-nm light in BALB/c mice bearing Colo-26 tumors. Animals treated with photosensitizer 6 at 3.25 mg (3.0 μmol)/kg and light required 10.3±0.8 d to reach 400-mm^3 tumor volume, which was more than double the time for control animals (4.3±1.0 d) receiving neither drug nor light (P <0.01).
The animals were irradiated 4 h post-injection with 135 J cm^−2 of 694-nm red light from a dye laser (75 mW cm^−2 for 30 min). […] For comparison purposes, BALB/C mice bearing Colo-26 tumors were given 2.5 mg (4.0 μmol)/kg of Photofrin® as a 5% aqueous dextrose solution and were irradiated 24 h later with 135 J cm^−2 of 630-nm laser light at a power of 75 mW cm^−2 for PDT with Photofrin®.
Animals initially were given i.v. (tail vein) injections of sensitizer at various concentrations (0.05to 5.0 μmol/kg). Mice were restrained at various times thereafter without anesthesia in specially designed holders. Fischer 344 female rats were chemically restrained at various times thereafter. In both models, tumors or normal back skin were exposed to light from a xenon arc lamp with appropriate filters or to a dye laser tuned to the absorption maximum determined by in vivo reflectance measurements. Power density of delivered light typically fell in the range of 10-200 mW cm^−2 evenly distributed to a spot size of roughly 1.5 cm and measured by a radiometer. Several dose rates were explored to examine role/limitation of available oxygen on the photodynamic process. Intratumor temperatures were measured with an Omega HYP-O microthermocouple and, when necessary, a stream of nitrogen gas was used to keep intratumor temperatures below 37° C. Animals were examined and measured daily for the first 14 days post treatment and every other day thereafter until the tumors reached 400 mm^3 in mice or until the tumors double in size for Fischer 344 female rats or for 90 days. Tumor size were measured in two dimensions with a caliper. Time to 400 mm^3 or volume doubling times of tumors from control and PDT-treated groups (8-12 animals per group) were compared statistically using the SAS statistical program (SAS, Inc., Cary, N.C.). A P-value of <0.05 is considered significant. The degree of damage to the normal skin within the irradiation field also were noted. Disappearance of tumor with minimal damage to normal skin is the most desirable response. Animals are considered cured if no tumor regrowth occurs by 90 days. In all studies, three control groups were utilized in addition to the treatment group receiving both sensitizer and light: 1) a complete control receiving neither drug nor light, 2) a group receiving sensitizer only, and 3) a group receiving light only. Representative animals from each of the treatment groups were processed for histology immediately, one day, or two weeks after irradiation. Step sections through the tumor were used to define the boundaries of tumor cell damage and death as a function of distance from the skin surface.

[5] = in vivo; cited from earlier work
mice = conditions: 150 mg/kg; cited from earlier work
BFS1 sarcoma = conditions: cited from earlier work
[6] = 24 h incubation in dark, survival 24 h later, read-out: effective concentration to give 50% cell-kill of Colo-26 cells in vitro (EC50)
[7] = read-out: EC50 against Colo-26 cells
[8] = 135 J cm^−2, DH-105 2.5, DH-82 0.13, MA-99 0.15 mg/kg, 694 nm 4 h post-injection, Photofrin® 2.5 mg/kg, 630 nm 24 h

- quantum yield for the generation of singlet oxygen φ(^1O2) [1]: 0.80 ± 0.02
Compound: 5,10,15,20-tetrakis(4-sulfonatophenyl)-21-thiaporphyrin [Compound 8]
- EC50 (Colo-26 cells; [6]): > 100 µM
- phototoxicity in two tumor cell lines (two tumor cell lines): Neither 21-core-modified porphyrin displayed significant phototoxicity

- emissiveness relative to dithiaporphyrin analogue [2]: 10%
- quantum yield for fluorescence φF (± σ) [2]: 8.9 (± 0.4) × 10^−4
Compound: O=S(=O)(O)c1ccc(-c2c3nc(c(-c4ccc(S(=O)(=O)O)cc4)c4ccc([se]4)c(-c4ccc(S(=O)(=O)O)cc4)c4nc(c(-c5ccc(S(=O)(=O)O)cc5)c5ccc2[se]5)C=C4)C=C3)cc1 [Compound 7]
- EC50 (Colo-26 cells; [6]): > 100 µM

Compound: O=S(=O)([O-])c1ccc(-c2c3nc(c(-c4ccc(S(=O)(=O)[O-])cc4)c4ccc([se]4)c(-c4ccc(S(=O)(=O)[O-])cc4)c4nc(c(-c5ccc(S(=O)(=O)[O-])cc5)c5ccc2[nH]5)C=C4)C=C3)cc1.[Na+].[Na+].[Na+].[Na+] [Compound 9]
- phototoxicity in two tumor cell lines (two tumor cell lines): Neither 21-core-modified porphyrin displayed significant phototoxicity

Compound: O=S(=O)([O-])c1ccc(-c2c3nc(c(-c4ccc(F)cc4)c4ccc(s4)c(-c4ccc(F)cc4)c4nc(c(-c5ccc(S(=O)(=O)[O-])cc5)c5ccc2[se]5)C=C4)C=C3)cc1.[Na+].[Na+] [Compound 10]
- quantum yield for the generation of singlet oxygen φ(^1O2) [1]: 0.65 ± 0.01
- EC50 (Colo-26 cells; [6]): 2.1 µM
- emissiveness relative to dithiaporphyrin analogue [2]: 2%
- quantum yield for fluorescence φF (± σ) [2]: 1.4 (± 0.1) × 10^−4

Compound: O=S(=O)([O-])c1ccc(-c2c3nc(c(-c4ccc(F)cc4)c4ccc([se]4)c(-c4ccc(F)cc4)c4nc(c(-c5ccc(S(=O)(=O)[O-])cc5)c5ccc2s5)C=C4)C=C3)cc1.[Na+].[Na+] [Compound 11]
- quantum yield for the generation of singlet oxygen φ(^1O2) [1]: 0.64 ± 0.01
- EC50 (Colo-26 cells; [6]): 1.2 µM

- rate of photobleaching (kbleach) [3]: 0.13 ± 0.02 × 10^4 s^−1
Compound: O=S(=O)([O-])c1ccc(-c2c3nc(c(-c4ccc(C(F)(F)F)cc4)c4ccc(s4)c(-c4ccc(C(F)(F)F)cc4)c4nc(c(-c5ccc(S(=O)(=O)[O-])cc5)c5ccc2s5)C=C4)C=C3)cc1.[Na+].[Na+] [Compound 13]
- EC50 (Colo-26 cells; [6]): > 100 µM

Compound: CN(C)c1ccc(-c2c3nc(c(-c4ccc(S(=O)(=O)[O-])cc4)c4ccc(s4)c(-c4ccc(S(=O)(=O)[O-])cc4)c4nc(c(-c5ccc(N(C)C)cc5)c5ccc2s5)C=C4)C=C3)cc1.[Na+].[Na+] [Compound 14]
- rate of photobleaching (kbleach) [3]: 0.77 ± 0.04 × 10^4 s^−1
- phototoxicity relative to Photofrin® toward R3230AC cells (surviving fraction, FIG. 4c) [4]: more phototoxic than Photofrin®
- quantum yield for the generation of singlet oxygen φ(^1O2) [1]: 0.60 ± 0.02
- EC50 (Colo-26 cells; [6]): 0.6 µM
- quantum yield for fluorescence φF (± σ) [2]: <10^−4

- rate of photobleaching (kbleach) [3]: 0.18 ± 0.02 × 10^4 s^−1
Compound: O=C([O-])COc1ccc(-c2c3nc(c(-c4ccccc4)c4ccc(s4)c(-c4ccccc4)c4nc(c(-c5ccc(OCC(=O)[O-])cc5)c5ccc2s5)C=C4)C=C3)cc1.[Na+].[Na+] [Compound 15]
- EC50 (Colo-26 cells; [6]): 0.15 µM

Compound: O=S(=O)([O-])c1ccc(-c2c3nc(c(-c4ccc(F)cc4)c4ccc([se]4)c(-c4ccc(F)cc4)c4nc(c(-c5ccc(S(=O)(=O)[O-])cc5)c5ccc2[se]5)C=C4)C=C3)cc1.[Na+].[Na+] [DH-105]
- rate of photobleaching (kbleach) [3]: 1.44 ± 0.03 × 10^4 s^−1
- gross abnormalities in organs and tissues after sacrifice (BALB/c mice; 10 mg/kg i.v., after 90 days): no gross abnormalities were noted
- toxicity and morbidity (BALB/c mice; 10 mg/kg, followed 90 days post-injection, normal vivarium light): neither toxicity nor morbidity was observed
- phototoxicity relative to Photofrin® toward R3230AC cells (surviving fraction, FIG. 4c) [4]: more phototoxic than Photofrin®
- quantum yield for the generation of singlet oxygen φ(^1O2) [1]: 0.55 ± 0.02
- EC50 (Colo-26 cells; [7]): 7.9 µM
- cures (no tumor regrowth 90 days post-treatment) (Colo-26 tumors; [8]): three cures
- mean time to 400 mm^3 of the animals not cured (Colo-26 tumors; [8]): 17 ± 3 days
- fluorescence emission detected [2]: no detectable emission
- quantum yield for fluorescence φF (± σ) [2]: <10^−4

Compound: CCCCCCOC(C)c1c(C)c2cc3nc(c4c5[nH]c(cc6nc(cc1[nH]2)C(C)=C6CC)c(C)c5C(=O)C4)[C@@H](CCC(=O)O)[C@@H]3C (stereo partly drawn) [HPPH, reference compound]
- EC50 (Colo-26 cells; [7]): 0.3 µM
- EC50 fold lower than for Photofrin® (Colo-26 cells; Colo-26 cells, 590-800 nm light): 30 fold

Compound: CC(=O)[O-].CC(=O)[O-].CCc1c(CC)c2cc3nc(cnc4cc(OCCOCCOCCOC)c(OCCOCCOCCOC)cc4ncc4nc(cc1[n-]2)C(CCCO)=C4C)C(C)=C3CCCO.O.[Lu+3] [Lu-Tex, lutetium texaphyrin]
- skin photosensitivity [5]: minimal skin photosensitivity

Compound: O=S(=O)(O)c1ccc(-c2c3nc(c(-c4ccc(S(=O)(=O)O)cc4)c4ccc([nH]4)c(-c4ccc(S(=O)(=O)O)cc4)c4nc(c(-c5ccc(S(=O)(=O)O)cc5)c5ccc2[nH]5)C=C4)C=C3)cc1 [TPPS4, 5,10,15,20-Tetrakis (4-sulfonato-phenyl)porphyrin, reference compound]
- quantum yield for the generation of singlet oxygen φ(^1O2) [1]: 0.71^b
- EC50 (Colo-26 cells; [6]): 125 µM
- time to reach 400-mm^3 tumor volume (Colo-26 tumors; TPPS4 at 10 mg/kg): 6.7 ± 1.1 days
- toxicity at high concentrations (mice): neurotoxicity

Compound: O=S(=O)([O-])c1ccc(-c2c3nc(c(-c4ccc(S(=O)(=O)[O-])cc4)c4ccc(s4)c(-c4ccc(S(=O)(=O)[O-])cc4)c4nc(c(-c5ccc(S(=O)(=O)[O-])cc5)c5ccc2[nH]5)C=C4)C=C3)cc1.[Na+].[Na+].[Na+].[Na+] [sulfonated 1]
- efficacy in vivo relative to chlorin e6 (BFS1 sarcoma; BFS1 sarcoma-bearing mice): comparable to chlorin e6 for efficacy

Compound: O=S(=O)([O-])c1ccc(-c2c3nc(c(-c4ccc(S(=O)(=O)[O-])cc4)c4ccc([se]4)c(-c4ccc(S(=O)(=O)[O-])cc4)c4nc(c(-c5ccc(S(=O)(=O)[O-])cc5)c5ccc2[nH]5)C=C4)C=C3)cc1.[Na+].[Na+].[Na+].[Na+] [sulfonated 2]
- skin photosensitization (BFS1 sarcoma; animals irradiated 24 h post-injection): no skin photosensitization was observed

Compound: benzoporphyrin derivative
- duration of skin photosensitivity [5]: 3 to 5 days

Source: patent US6984656B2, “Core modified porphyrins” (priority 2001, dated 2006)
